Among the test systems are COLO 205 colon; HCT-116 colon; HL-60(TB) leukemia; HS 578T breast; KM12 colon; MCF7 breast; NCI-H226 lung; NCI-H460 lung; OVCAR-3 ovarian; OVCAR-5 ovarian.
What all share (test): growth of human tumour cells (NCI), 48 h

Structures are written as SMILES. Where “and” joins values, the source holds several entries; their conditions need not be identical. Equal values may be shown once.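 In this assay, cells in 96-well plates receive the compound at five concentrations for 48 hours. Endpoints are linearly interpolated between the surrounding concentrations. GI50 = concentration required for 50% inhibition of growth. TGI: total growth inhibition.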

Take `CN(C)C/C=C/C(=O)Nc1cc2c(Nc3cccc(Cl)c3F)ncnc2cc1OCCOC(F)F`: the GI50 in the experiment on COLO 205 colon is 1.69 µM; in the experiment on HCT-116 colon, 1.87 µM; in the experiment with HL-60(TB) leukemia it was 1.71 µM; with HS 578T breast, 1.46 µM; in the experiment on KM12 colon, 3.11 µM; in the experiment on MCF7 breast, 1.49 µM. Besides, the GI50 in the experiment with NCI-H226 lung is 1.68 µM; in the experiment on NCI-H460 lung it was 2.82 µM; with OVCAR-3 ovarian, 0.343 µM; with OVCAR-5 ovarian, 0.371 µM. For the same compound, the TGI in the experiment with COLO 205 colon was 6.35 µM; with HCT-116 colon, 11 µM; in the experiment with HL-60(TB) leukemia it was 7.23 µM; with HS 578T breast, 7.02 µM; with KM12 colon, 13.5 µM; with MCF7 breast, 12 µM. Moreover, the TGI came out at 7.28 µM in the experiment with NCI-H226 lung, 13.5 µM in the experiment with NCI-H460 lung, 4 µM in the experiment with OVCAR-3 ovarian and 15.1 µM in the experiment on OVCAR-5 ovarian.
For `COC(=O)[C@H](CCCCNC(=O)OCc1ccccc1)NC(=O)[C@@H](NC(=O)Nc1cc(C(F)(F)F)cc(C(F)(F)F)c1)C(C)C`, the GI50 in the experiment on COLO 205 colon, in the experiment with HCT-116 colon, in the experiment on HL-60(TB) leukemia, in the experiment on HS 578T breast, in the experiment on KM12 colon and in the experiment with MCF7 breast was above 10 µM throughout. The GI50 with NCI-H226 lung, in the experiment on NCI-H460 lung, in the experiment with OVCAR-3 ovarian and in the experiment with OVCAR-5 ovarian was above 10 µM each time. For the same compound, the TGI with COLO 205 colon, in the experiment with HCT-116 colon, in the experiment on HL-60(TB) leukemia, in the experiment with HS 578T breast, in the experiment on KM12 colon and in the experiment with MCF7 breast was above 10 µM each time. The TGI in the experiment with NCI-H226 lung, in the experiment on NCI-H460 lung, with OVCAR-3 ovarian and in the experiment on OVCAR-5 ovarian was above 10 µM throughout.
In the case of `CC[Si](CC)(CC)OC1[C@@H](O[Si](CC)(CC)CC)[C@@H](CNC(=O)NC)O[C@H]1n1cnc2c(NC(=O)Nc3ccccc3)ncnc21` (some centres not stated), the GI50 with COLO 205 colon was 2.09 µM; with HCT-116 colon, 3.26 µM; in the experiment with HL-60(TB) leukemia it was 2.49 µM; in the experiment with HS 578T breast, 2.66 µM; with KM12 colon it was 3.26 µM; in the experiment with MCF7 breast, 3.24 µM. The GI50 was 5.11 µM with NCI-H226 lung, 2.48 µM in the experiment on NCI-H460 lung, 2.63 µM with OVCAR-3 ovarian and 4.06 µM with OVCAR-5 ovarian. The TGI in the experiment on COLO 205 colon came out at 3.62 µM; in the experiment with HCT-116 colon, 15.2 µM; in the experiment on HL-60(TB) leukemia, 6.32 µM; in the experiment on HS 578T breast, 39.5 µM; in the experiment with KM12 colon it was 9.5 µM; in the experiment with MCF7 breast, 14.3 µM. In addition, the TGI in the experiment on NCI-H226 lung was above 100 µM; in the experiment on NCI-H460 lung, 6.61 µM; in the experiment with OVCAR-3 ovarian, 7.7 µM; with OVCAR-5 ovarian, 62.1 µM.
In the case of `COc1cc(/C=C/c2ccnc3ccccc23)cc(OC)c1OC`, the GI50 is 3.26 µM with COLO 205 colon; 2.88 µM with HCT-116 colon; 2.56 µM with HL-60(TB) leukemia; 1.74 µM in the experiment on HS 578T breast; 1.34 µM with KM12 colon; 2.35 µM with MCF7 breast. The GI50 with NCI-H460 lung is 2.94 µM; in the experiment with OVCAR-3 ovarian, 1.67 µM. Moreover, the TGI is 7.36 µM and 15.1 µM with COLO 205 colon; 12.1 µM and 18.5 µM in the experiment on HCT-116 colon; 1.58 µM and 7.97 µM with HL-60(TB) leukemia; 20.9 µM and 7.18 µM with HS 578T breast; 15.9 µM and 11.1 µM in the experiment with KM12 colon; 25.2 µM and > 100 µM in the experiment with MCF7 breast. For the same compound, the TGI in the experiment on NCI-H226 lung was 50.9 µM; with NCI-H460 lung it was 15.8 µM and 15 µM; with OVCAR-3 ovarian it was 14.6 µM and 4.71 µM; in the experiment with OVCAR-5 ovarian, 95 µM and > 100 µM.
In the case of `CCC(C)C(=O)OC1CCC=C2C=CC(C)C(CCC3CC(O)CC(=O)O3)C21` (configuration not stated), the TGI was 32.4 µM in the experiment with COLO 205 colon; above 100 µM in the experiment with HCT-116 colon; above 100 µM in the experiment with HL-60(TB) leukemia; 17.4 µM in the experiment with HS 578T breast; above 100 µM with KM12 colon; above 72.2 µM in the experiment with MCF7 breast. Moreover, the TGI in the experiment with NCI-H226 lung, in the experiment with NCI-H460 lung, in the experiment on OVCAR-3 ovarian and in the experiment with OVCAR-5 ovarian was above 100 µM throughout.
On to `COc1ccc(C(Nc2ccccn2)c2cc(C(C)(C)C)cc(C(C)(C)C)c2O)cc1` (configuration not stated), for which the TGI in the experiment with COLO 205 colon is 50 µM; with HCT-116 colon it was above 100 µM; in the experiment on HS 578T breast, above 100 µM; with KM12 colon it was 63.8 µM; in the experiment with MCF7 breast, above 100 µM; with NCI-H226 lung, 47.9 µM. Also, the TGI with NCI-H460 lung was 55.7 µM; in the experiment with OVCAR-3 ovarian it was 43.6 µM; with OVCAR-5 ovarian, above 100 µM.
`COc1ccc(NC(=O)c2cccc(C3CCc4c(cc(OC)c(OC)c4OC)O3)c2)cc1` (configuration not stated): the GI50 is 2.39 µM in the experiment on COLO 205 colon; 3.65 µM in the experiment with HCT-116 colon; 1.25 µM with HL-60(TB) leukemia; 2.69 µM in the experiment on HS 578T breast; 3.49 µM in the experiment on KM12 colon; 3.11 µM in the experiment on MCF7 breast. Besides, the GI50 in the experiment with NCI-H460 lung is 3.33 µM; in the experiment with OVCAR-3 ovarian, 3.54 µM; with OVCAR-5 ovarian, 6.46 µM. Further, the TGI is 6.67 µM in the experiment on COLO 205 colon; above 100 µM in the experiment on HCT-116 colon; above 100 µM in the experiment with HL-60(TB) leukemia; above 100 µM in the experiment with HS 578T breast; above 100 µM in the experiment with KM12 colon; above 100 µM with MCF7 breast. The TGI in the experiment with NCI-H460 lung, in the experiment on OVCAR-3 ovarian and in the experiment on OVCAR-5 ovarian was above 100 µM in each case.
As to `C=C1C(=O)O[C@H]2[C@H]1CC/C(COC(=O)N[C@H](Cc1c[nH]c3ccccc13)C(=O)OC)=C\CC[C@@]1(C)O[C@@H]21`, the GI50 was 1.81 µM with COLO 205 colon; 1.16 µM in the experiment with HCT-116 colon; 12.6 µM in the experiment with HS 578T breast; 11.8 µM in the experiment with KM12 colon; 1.24 µM with MCF7 breast; 2.2 µM in the experiment with NCI-H226 lung. For the same compound, the GI50 was 5.79 µM with NCI-H460 lung, 1.44 µM in the experiment on OVCAR-3 ovarian and 3.25 µM with OVCAR-5 ovarian. Also, the TGI is 3.76 µM in the experiment with COLO 205 colon; 2.59 µM in the experiment on HCT-116 colon; 44.2 µM in the experiment with HS 578T breast; 28.6 µM in the experiment on KM12 colon; 2.99 µM in the experiment on MCF7 breast; 5.73 µM in the experiment on NCI-H226 lung. Besides, the TGI in the experiment with NCI-H460 lung was 21.2 µM; with OVCAR-3 ovarian, 3.07 µM; in the experiment on OVCAR-5 ovarian it was 13.8 µM.
For the compound `CCSCCCC(=O)O`, the TGI in the experiment on COLO 205 colon, with HCT-116 colon, in the experiment with HL-60(TB) leukemia, in the experiment on HS 578T breast, in the experiment with KM12 colon and with MCF7 breast was above 100 µM throughout. Besides, the TGI with NCI-H226 lung, with OVCAR-3 ovarian and in the experiment on OVCAR-5 ovarian was above 100 µM each time.

For the origin of these results see PubChem BioAssay (NCI).
